Results on 33 compounds are retold here after ChEMBL document CHEMBL1157539, “Thousands of chemical starting points for antimalarial lead identification” (Nature, 2010).

SMILES strings stand for the structures. “And” between values parts separate entries of the source, which are not always exact repeats. Equal values may be shown once.

For the first assay, the system named is Plasmodium falciparum. The experiment in a line: GSK_TCMDC: Inhibition of Plasmodium falciparum 3D7 in whole erythrocytes, using parasite LDH activity as an index of growth. Format: functional, organism-based.
Conditions: not given
The compound `O=C(/C=C/c1ccc([N+](=O)[O-])cc1)NC1CCC(CN2CCC(c3c[nH]c4ccccc34)CC2)CC1` (stereo unspecified) had an XC50 of 835 nM.

Regarding `O[C@@H](c1cc(C(F)(F)F)nc2c(C(F)(F)F)cccc12)[C@H]1CCCCN1`, the XC50 came out at 69.2 nM.

On to `N#Cc1ccc2c(c1)CN(CC[C@H]1CC[C@H](NC(=O)/C=C/c3c[nH]c4ccccc34)CC1)CC2`, for which the XC50 worked out at 897 nM.

On to `Cc1[nH]c(C)c(-c2ccc(Oc3ccc(OC(F)(F)F)cc3)cc2)c(=O)c1Br`, for which the XC50 was 563 nM and 112 nM.

In the case of `COc1ccc2ncc(F)c(C(O)CN3CCC(NCc4ccc5c(n4)NC(=O)CO5)CC3)c2c1` (stereo unspecified), the XC50 was 1110 nM and 367 nM.

As for `Cc1nc2c(c(O)c1Cl)-c1ccc(Oc3cccc(C(F)(F)F)c3)cc1C2=O`, the XC50 was found to be 36.9 nM.

`C/C=C1\CN2CC[C@H]1C[C@H]2[C@H](O)c1ccnc2ccc(OC)cc12` showed an XC50 of 219 nM.

Compound `CCC(CC(NCCCCNC(=O)c1ccc(NC(=O)c2ccc(Cl)cc2)cc1)c1ccccc1)c1ccccc1OC` (stereo unspecified) yielded an XC50 of 666 nM.

As to `Cn1nc(-c2ccc(S(=O)(=O)NC3CCC(CN4CCC(c5c[nH]c6ccccc56)CC4)CC3)s2)cc1C(F)(F)F` (stereo unspecified), the XC50 is 835 nM.

`O=C1Nc2cccc3c2C1(CCCCN1CCC(c2cc4ccncc4[nH]2)CC1)CCC3` (stereo unspecified) showed an XC50 of 911 nM.

In turn, `O=C(/C=C/c1cccc(F)c1)NC1CCC(CN2CCC(c3c[nH]c4ccccc34)CC2)CC1` (stereo unspecified) gave an XC50 of 866 nM.

For `O=C(/C=C/c1cccc(Cl)c1)NC1CCC(CN2CCC(c3c[nH]c4ccccc34)CC2)CC1` (stereo unspecified), the XC50 amounted to 721 nM.

In the case of `O=C(/C=C/c1ccc(Cl)cc1)NC1CCC(CN2CCC(c3c[nH]c4ccccc34)CC2)CC1` (stereo unspecified), the XC50 came out at 800 nM.

`CC1=C(C(=O)NC2CCC(CN3CCC(c4c[nH]c5ccccc45)CC3)CC2)Cc2ccccc21` (stereo unspecified): the XC50 is 833 nM.

`COc1cc(/C=C/C(=O)NC2CCC(CN3CCC(c4c[nH]c5ccccc45)CC3)CC2)ccc1O` (stereo unspecified) had an XC50 of 791 nM.

`COc1cccc(/C=C/C(=O)NC2CCC(CN3CCC(c4c[nH]c5ccccc45)CC3)CC2)c1` (stereo unspecified): the XC50 came to 834 nM.

For the compound `Cc1ccc(CC(C)NCC(O)c2cccc(C(F)(F)F)c2)cc1` (stereo unspecified), the XC50 was found to be 709 nM.

In turn, `C[C@H](CNc1ccnc(Nc2ccc3[nH]c(=O)[nH]c3c2)n1)c1ccccc1` had an XC50 of 700 nM.

With `CC(=O)Nc1ccc2[nH]cc(C3CCN(CC4CCC(NC(=O)/C=C/c5ccc(Cl)c(Cl)c5)CC4)CC3)c2c1` (stereo unspecified), the XC50 is 441 nM.

For the compound `COc1ccc(C=CC(=O)NC2CCC(CN3CCC(c4c[nH]c5ccccc45)CC3)CC2)cc1` (stereo unspecified), the XC50 turned out to be 807 nM.

Consider `O=C(CCc1ccc(Cl)cc1Cl)NC1CCC(CN2CCC(c3c[nH]c4ccccc34)CC2)CC1` (stereo unspecified), for which the XC50 was 216 nM and 903 nM.

`O=C(/C=C/c1ccc(Cl)c(Cl)c1)NCCCCCN1CCC(c2c[nH]c3ccccc23)C(O)C1` (stereo unspecified) yielded an XC50 of 819 nM.

Take `FC(F)(F)c1ccc(NC(=S)NC2CCC(CN3CCC(c4c[nH]c5ccccc45)CC3)CC2)cc1` (stereo unspecified): the XC50 was found to be 726 nM.

For `O=C(C=Cc1cccc(Cl)c1Cl)NC1CCC(CN2CCC(c3c[nH]c4ccccc34)CC2)CC1` (stereo unspecified), the XC50 stood at 1140 nM.

On to `O=C(/C=C/c1ccc(C(F)(F)F)cc1)NC1CCC(CN2CCC(c3c[nH]c4ccccc34)CC2)CC1` (stereo unspecified), for which the XC50 was 964 nM and 369 nM.

Turning to `N#Cc1c(Cl)cccc1Oc1ccc(S(=O)(=O)NC2CCC(CN3CCC(c4c[nH]c5ccccc45)CC3)CC2)cc1` (stereo unspecified), the XC50 was determined as 714 nM.

For the compound `O=C(Nc1ccccc1Cl)NC1CCC(CN2CCC(c3c[nH]c4ccccc34)CC2)CC1` (stereo unspecified), the XC50 turned out to be 753 nM.

In the case of `O=C(Nc1ccccc1C(F)(F)F)NC1CCC(CN2CCC(c3c[nH]c4ccccc34)CC2)CC1` (stereo unspecified), the XC50 was determined as 946 nM.

Take `O=C(/C=C/c1ccc(Cl)c(Cl)c1)NC1CCC(CN2CCC(c3c[nH]c4ccc(O)cc34)CC2)CC1` (stereo unspecified): the XC50 is 417 nM and 140 nM.

`Cc1ccc2[nH]cc(C3CCN(CC4CCC(NC(=O)/C=C/c5ccc(Cl)c(Cl)c5)CC4)CC3)c2c1` (stereo unspecified) had an XC50 of 552 nM.

Consider `O=C(/C=C/c1c(Cl)cccc1Cl)NC1CCC(CN2CCC(c3c[nH]c4ccccc34)CC2)CC1` (stereo unspecified), for which the XC50 was 814 nM and 373 nM.

The compound `NC(=O)c1ccc2[nH]cc(C3CCN(CC4CCC(NC(=O)/C=C/c5ccc(Cl)c(Cl)c5)CC4)CC3)c2c1` (stereo unspecified) registered an XC50 of 867 nM.

In the case of `S=C(NCCc1ccc(Cl)cc1)NC1CCC(CN2CCC(c3c[nH]c4ccccc34)CC2)CC1` (stereo unspecified), the XC50 turned out to be 703 nM.

Still in this assay, the particulars now being: Plasmodium falciparum, 3D7.
In turn, `O=C(/C=C/c1ccc([N+](=O)[O-])cc1)NC1CCC(CN2CCC(c3c[nH]c4ccccc34)CC2)CC1` (stereo unspecified) returned an XC50 of 794 nM.

Consider `O[C@@H](c1cc(C(F)(F)F)nc2c(C(F)(F)F)cccc12)[C@H]1CCCCN1`, for which the XC50 amounted to 73.7 nM.

As for `N#Cc1ccc2c(c1)CN(CC[C@H]1CC[C@H](NC(=O)/C=C/c3c[nH]c4ccccc34)CC1)CC2`, the XC50 is 986 nM.

`CCC(CC(NCCCCNC(=O)c1ccc(NC(=O)c2ccc(Cl)cc2)cc1)c1ccccc1)c1ccccc1OC` (stereo unspecified) yielded an XC50 of 792 nM.

Turning to `Cn1nc(-c2ccc(S(=O)(=O)NC3CCC(CN4CCC(c5c[nH]c6ccccc56)CC4)CC3)s2)cc1C(F)(F)F` (stereo unspecified), the XC50 was found to be 820 nM.

The compound `O=C1Nc2cccc3c2C1(CCCCN1CCC(c2cc4ccncc4[nH]2)CC1)CCC3` (stereo unspecified) showed an XC50 of 787 nM.

Turning to `O=C(/C=C/c1cccc(F)c1)NC1CCC(CN2CCC(c3c[nH]c4ccccc34)CC2)CC1` (stereo unspecified), the XC50 came out at 713 nM.

With `O=C(/C=C/c1cccc(Cl)c1)NC1CCC(CN2CCC(c3c[nH]c4ccccc34)CC2)CC1` (stereo unspecified), the XC50 stood at 752 nM.

Turning to `O=C(/C=C/c1ccc(Cl)cc1)NC1CCC(CN2CCC(c3c[nH]c4ccccc34)CC2)CC1` (stereo unspecified), the XC50 was found to be 727 nM.

Regarding `CC1=C(C(=O)NC2CCC(CN3CCC(c4c[nH]c5ccccc45)CC3)CC2)Cc2ccccc21` (stereo unspecified), the XC50 stood at 996 nM.

The compound `COc1cc(/C=C/C(=O)NC2CCC(CN3CCC(c4c[nH]c5ccccc45)CC3)CC2)ccc1O` (stereo unspecified) came in with an XC50 of 809 nM.

As for `COc1cccc(/C=C/C(=O)NC2CCC(CN3CCC(c4c[nH]c5ccccc45)CC3)CC2)c1` (stereo unspecified), the XC50 worked out at 765 nM.

Regarding `CC(=O)Nc1ccc2[nH]cc(C3CCN(CC4CCC(NC(=O)/C=C/c5ccc(Cl)c(Cl)c5)CC4)CC3)c2c1` (stereo unspecified), the XC50 was found to be 719 nM.

Compound `COc1ccc(C=CC(=O)NC2CCC(CN3CCC(c4c[nH]c5ccccc45)CC3)CC2)cc1` (stereo unspecified) showed an XC50 of 782 nM.

In turn, `O=C(/C=C/c1ccc(Cl)c(Cl)c1)NCCCCCN1CCC(c2c[nH]c3ccccc23)C(O)C1` (stereo unspecified) returned an XC50 of 795 nM.

In the case of `FC(F)(F)c1ccc(NC(=S)NC2CCC(CN3CCC(c4c[nH]c5ccccc45)CC3)CC2)cc1` (stereo unspecified), the XC50 amounted to 392 nM.

`O=C(C=Cc1cccc(Cl)c1Cl)NC1CCC(CN2CCC(c3c[nH]c4ccccc34)CC2)CC1` (stereo unspecified) yielded an XC50 of 680 nM.

For `N#Cc1c(Cl)cccc1Oc1ccc(S(=O)(=O)NC2CCC(CN3CCC(c4c[nH]c5ccccc45)CC3)CC2)cc1` (stereo unspecified), the XC50 was determined as 1070 nM.

In the case of `O=C(Nc1ccccc1Cl)NC1CCC(CN2CCC(c3c[nH]c4ccccc34)CC2)CC1` (stereo unspecified), the XC50 amounted to 803 nM.

The compound `O=C(Nc1ccccc1C(F)(F)F)NC1CCC(CN2CCC(c3c[nH]c4ccccc34)CC2)CC1` (stereo unspecified) registered an XC50 of 784 nM.

The compound `Cc1ccc2[nH]cc(C3CCN(CC4CCC(NC(=O)/C=C/c5ccc(Cl)c(Cl)c5)CC4)CC3)c2c1` (stereo unspecified) gave an XC50 of 840 nM.

The compound `NC(=O)c1ccc2[nH]cc(C3CCN(CC4CCC(NC(=O)/C=C/c5ccc(Cl)c(Cl)c5)CC4)CC3)c2c1` (stereo unspecified) displayed an XC50 of 761 nM.

`S=C(NCCc1ccc(Cl)cc1)NC1CCC(CN2CCC(c3c[nH]c4ccccc34)CC2)CC1` (stereo unspecified) had an XC50 of 703 nM.
